The nature of assay [1]: Luminescence Cell-Based Dose Confirmation HTS to Identify Inhibitors of Platelet Dense Granule Release. [Related pubchem assays: 1663 (Primary HTS), 1678 (Summary of Project)]. It counts as functional.
The target in assay [2] is T1, High affinity choline transporter 1 (Homo sapiens, UniProt Q9GZV3).
T1 sequence (Q9GZV3 whole entry): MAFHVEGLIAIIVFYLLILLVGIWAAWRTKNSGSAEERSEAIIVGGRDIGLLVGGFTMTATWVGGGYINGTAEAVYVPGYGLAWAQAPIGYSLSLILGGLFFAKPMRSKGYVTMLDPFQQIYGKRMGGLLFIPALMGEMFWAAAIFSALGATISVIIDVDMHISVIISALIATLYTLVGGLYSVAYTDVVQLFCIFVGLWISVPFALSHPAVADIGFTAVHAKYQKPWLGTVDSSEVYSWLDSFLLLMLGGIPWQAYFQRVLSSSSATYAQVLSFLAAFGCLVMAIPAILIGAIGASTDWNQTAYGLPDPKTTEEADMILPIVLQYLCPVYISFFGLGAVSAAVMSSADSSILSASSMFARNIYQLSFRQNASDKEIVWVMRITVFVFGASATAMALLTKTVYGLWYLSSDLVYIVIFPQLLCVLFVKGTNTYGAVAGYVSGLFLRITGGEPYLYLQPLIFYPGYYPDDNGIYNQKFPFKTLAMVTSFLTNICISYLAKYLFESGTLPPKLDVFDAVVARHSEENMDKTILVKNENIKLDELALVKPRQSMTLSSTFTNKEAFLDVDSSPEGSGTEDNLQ
The experiment in a line: human choline transporter blockers, potency – cell-based, 5-point CRC, membrane potential dye, dose response (AID 504840). Format: functional.

Assay [3] concerns the target T1, High affinity choline transporter 1. The assay is described as follows: human choline transporter blockers, potency – cell-based, 10-point CRC, membrane potential dye, dose response (AID 588401).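 Also: membrane potential dye fluorescence of choline-evoked depolarization via CHT.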 Format: functional.
In a further assay the target is Melanocortin receptor 4 (Homo sapiens, UniProt P32245). The experiment in a line: inhibitors of MC4R cAMP signaling – cell-based, TR-FRET, biased antagonists, dose response (AID 602298).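 Also: antagonist potency against agonist-stimulated cAMP production.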 It counts as functional.
A short description of assay [4]: cAMP pathway inhibition in counterscreen cell line – TR-FRET cAMP detection, counter-screen for MC4R biased antagonist project, dose response (AID 602305).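 Also: U2OS cells stimulated with forskolin near its EC80 as the cAMP inducer; potency is for inhibition of forskolin-stimulated cAMP signaling.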 It counts as functional, cell-based. In general terms: The purpose of a counterscreen is to sort out artefacts and off-target activity.
The target in assay [5] is Sphingosine 1-phosphate receptor 2 (Homo sapiens, UniProt O95136). The experiment in a line: Late-stage fluorescence-based dose-response cell-based counterscreen assay to identify agonists of the Sphingosine 1-Phosphate Receptor 3 (S1P3): Sphingosine 1-Phosphate Receptor 2 (S1P2) agonist assay. It counts as functional.
Sphingosine 1-phosphate receptor 2, sequence (O95136 whole entry): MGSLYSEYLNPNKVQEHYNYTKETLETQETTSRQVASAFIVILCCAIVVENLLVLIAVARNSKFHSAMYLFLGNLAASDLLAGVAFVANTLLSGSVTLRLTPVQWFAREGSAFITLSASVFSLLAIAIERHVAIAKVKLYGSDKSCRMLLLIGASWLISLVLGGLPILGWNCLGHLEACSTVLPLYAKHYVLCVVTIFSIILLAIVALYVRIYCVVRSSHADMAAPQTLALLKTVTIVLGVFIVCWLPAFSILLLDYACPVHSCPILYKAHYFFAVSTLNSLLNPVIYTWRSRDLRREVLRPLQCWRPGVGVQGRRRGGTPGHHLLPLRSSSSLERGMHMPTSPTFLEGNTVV
Assay [6] addresses T2, Sphingosine 1-phosphate receptor 4 (Homo sapiens, UniProt O95977).
T2 sequence (O95977 whole entry): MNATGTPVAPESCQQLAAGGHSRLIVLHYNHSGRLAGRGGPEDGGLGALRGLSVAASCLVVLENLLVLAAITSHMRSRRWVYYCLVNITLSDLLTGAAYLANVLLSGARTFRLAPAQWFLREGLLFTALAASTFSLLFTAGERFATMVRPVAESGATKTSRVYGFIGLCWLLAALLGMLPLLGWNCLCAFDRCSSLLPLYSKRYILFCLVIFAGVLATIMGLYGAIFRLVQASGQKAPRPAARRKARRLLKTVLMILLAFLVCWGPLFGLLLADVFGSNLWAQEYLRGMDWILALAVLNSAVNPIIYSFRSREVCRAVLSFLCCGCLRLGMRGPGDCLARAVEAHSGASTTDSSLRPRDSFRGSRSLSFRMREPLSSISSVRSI
The experiment in a line: Late-stage fluorescence-based dose-response cell-based counterscreen assay to identify agonists of the Sphingosine 1-Phosphate Receptor 3 (S1P3): Sphingosine 1-Phosphate Receptor 4 (S1P4) agonist assay. Format: functional.

Another assay has as its target Aurora kinase A (Homo sapiens, UniProt O14965). Format: functional.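 Also: value from the Navigating the Kinome kinase panel profiling, panel entry STK6.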
The target in assay [7] is Vascular endothelial growth factor receptor 2 (Homo sapiens, UniProt P35968). It counts as functional.
The target of the next assay is Aurora kinase B (Homo sapiens, UniProt Q96GD4). It counts as functional.
Aurora kinase B, sequence (Q96GD4 whole entry): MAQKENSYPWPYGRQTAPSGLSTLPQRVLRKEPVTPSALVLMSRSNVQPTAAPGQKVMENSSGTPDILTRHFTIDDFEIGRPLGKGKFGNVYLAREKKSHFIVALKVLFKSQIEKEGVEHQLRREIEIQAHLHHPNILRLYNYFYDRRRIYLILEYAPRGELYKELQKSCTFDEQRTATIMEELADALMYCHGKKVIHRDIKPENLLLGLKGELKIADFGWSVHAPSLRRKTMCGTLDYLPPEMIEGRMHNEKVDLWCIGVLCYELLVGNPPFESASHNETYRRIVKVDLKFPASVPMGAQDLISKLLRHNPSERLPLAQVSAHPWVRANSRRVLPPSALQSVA
In assay [8] the target is Cyclin-dependent kinase 19 (Homo sapiens, UniProt Q9BWU1). The assay is described as follows: Navigating the Kinome. Panel member name: CDC2L6. It counts as functional.
Cyclin-dependent kinase 19, sequence (Q9BWU1 whole entry): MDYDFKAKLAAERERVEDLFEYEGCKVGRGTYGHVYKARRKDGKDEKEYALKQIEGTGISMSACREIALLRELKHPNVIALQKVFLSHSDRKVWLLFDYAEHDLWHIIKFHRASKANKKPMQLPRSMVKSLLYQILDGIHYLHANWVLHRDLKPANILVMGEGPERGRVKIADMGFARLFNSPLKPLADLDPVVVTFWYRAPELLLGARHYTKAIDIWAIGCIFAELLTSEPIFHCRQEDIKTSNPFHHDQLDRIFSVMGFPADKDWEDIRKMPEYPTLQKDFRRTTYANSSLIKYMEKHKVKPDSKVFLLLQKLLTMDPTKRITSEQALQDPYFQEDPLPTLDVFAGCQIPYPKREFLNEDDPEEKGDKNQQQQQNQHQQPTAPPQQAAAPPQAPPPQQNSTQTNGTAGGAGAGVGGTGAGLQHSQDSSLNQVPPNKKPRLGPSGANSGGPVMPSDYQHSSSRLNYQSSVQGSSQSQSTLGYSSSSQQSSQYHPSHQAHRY
Assay [9] addresses Serine/threonine-protein kinase pim-1 (Homo sapiens, UniProt P11309). It counts as functional.
The target of assay [10] is Cell division cycle 7-related protein kinase (Homo sapiens, UniProt O00311). It counts as functional.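 Also: value obtained from a kinome-wide kinase panel.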
The target of assay [11] is Homeodomain-interacting protein kinase 2 (Homo sapiens, UniProt Q9H2X6). Format: functional.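 Also: measured within a kinome-wide kinase profiling panel, HIPK2 being one panel member.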
In assay [12] the target is Interleukin-1 receptor-associated kinase 4 (Homo sapiens, UniProt Q9NWZ3). It counts as functional.
Interleukin-1 receptor-associated kinase 4, sequence (Q9NWZ3 whole entry): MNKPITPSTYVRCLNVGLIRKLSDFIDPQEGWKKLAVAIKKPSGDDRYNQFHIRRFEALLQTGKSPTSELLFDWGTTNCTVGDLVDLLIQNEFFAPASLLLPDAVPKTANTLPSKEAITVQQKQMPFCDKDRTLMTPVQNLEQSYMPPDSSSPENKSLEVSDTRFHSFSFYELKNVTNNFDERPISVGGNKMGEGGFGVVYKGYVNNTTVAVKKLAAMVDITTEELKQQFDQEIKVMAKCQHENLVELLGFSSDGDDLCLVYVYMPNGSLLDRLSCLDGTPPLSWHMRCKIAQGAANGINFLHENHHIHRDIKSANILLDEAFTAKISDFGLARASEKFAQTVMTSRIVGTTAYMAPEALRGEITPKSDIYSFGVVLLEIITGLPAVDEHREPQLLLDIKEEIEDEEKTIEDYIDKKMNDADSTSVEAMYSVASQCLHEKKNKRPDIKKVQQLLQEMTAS
Assay [13] has as its target Cyclin-dependent kinase 7 (Homo sapiens, UniProt P50613). It counts as functional.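 Also: value comes from a kinome-wide kinase profiling panel in which CDK7 is one member.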
Assay [14] deals with Glycogen synthase kinase-3 beta (Homo sapiens, UniProt P49841). It counts as functional.
Glycogen synthase kinase-3 beta, sequence (P49841 whole entry): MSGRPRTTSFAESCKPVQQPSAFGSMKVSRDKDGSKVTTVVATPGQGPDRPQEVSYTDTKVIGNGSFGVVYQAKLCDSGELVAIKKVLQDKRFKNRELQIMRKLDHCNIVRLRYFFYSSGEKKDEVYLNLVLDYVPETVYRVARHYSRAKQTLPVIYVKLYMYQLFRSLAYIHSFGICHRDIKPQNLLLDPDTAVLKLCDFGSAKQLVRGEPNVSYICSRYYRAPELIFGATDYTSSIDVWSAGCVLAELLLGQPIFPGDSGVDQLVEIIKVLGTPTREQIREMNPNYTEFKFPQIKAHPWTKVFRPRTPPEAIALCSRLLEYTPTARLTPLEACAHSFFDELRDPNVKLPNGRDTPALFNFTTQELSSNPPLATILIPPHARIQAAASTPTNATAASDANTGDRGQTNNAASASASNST
The target of assay [15] is Cyclin-dependent kinase 9 (Homo sapiens, UniProt P50750). It counts as functional.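 Also: value from the CDK9 entry of a kinome-spanning kinase panel.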
In assay [16] the target is cAMP-dependent protein kinase catalytic subunit alpha (Homo sapiens, UniProt P17612). It counts as functional.
Assay [17] deals with Protein kinase C delta type (Homo sapiens, UniProt Q05655). It counts as functional.
Protein kinase C delta type, sequence (Q05655 whole entry): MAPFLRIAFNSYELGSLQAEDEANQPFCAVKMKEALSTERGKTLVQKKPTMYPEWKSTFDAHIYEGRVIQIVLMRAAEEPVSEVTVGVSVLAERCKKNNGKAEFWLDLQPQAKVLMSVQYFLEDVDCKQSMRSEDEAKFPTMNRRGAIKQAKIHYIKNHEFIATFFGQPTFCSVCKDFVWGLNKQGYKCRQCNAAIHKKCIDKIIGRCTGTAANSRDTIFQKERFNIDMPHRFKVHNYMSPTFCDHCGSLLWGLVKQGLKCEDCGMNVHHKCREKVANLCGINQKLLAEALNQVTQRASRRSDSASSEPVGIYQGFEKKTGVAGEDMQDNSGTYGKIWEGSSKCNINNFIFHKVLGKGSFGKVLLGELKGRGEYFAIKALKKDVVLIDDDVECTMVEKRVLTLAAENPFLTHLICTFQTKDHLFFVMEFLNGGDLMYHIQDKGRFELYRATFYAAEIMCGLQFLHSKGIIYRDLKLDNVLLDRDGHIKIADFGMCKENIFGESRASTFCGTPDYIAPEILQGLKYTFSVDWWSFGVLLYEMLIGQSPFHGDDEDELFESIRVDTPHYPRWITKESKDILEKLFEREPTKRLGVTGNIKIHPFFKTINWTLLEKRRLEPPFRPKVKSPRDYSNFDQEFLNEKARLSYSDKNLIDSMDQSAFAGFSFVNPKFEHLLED
For assay [18], the target named is Calcium/calmodulin-dependent protein kinase type II subunit gamma (Homo sapiens, UniProt Q13555). Format: functional.
The target of assay [19] is Calcium/calmodulin-dependent protein kinase type II subunit delta (Homo sapiens, UniProt Q13557). It counts as functional.
Calcium/calmodulin-dependent protein kinase type II subunit delta, sequence (Q13557 whole entry): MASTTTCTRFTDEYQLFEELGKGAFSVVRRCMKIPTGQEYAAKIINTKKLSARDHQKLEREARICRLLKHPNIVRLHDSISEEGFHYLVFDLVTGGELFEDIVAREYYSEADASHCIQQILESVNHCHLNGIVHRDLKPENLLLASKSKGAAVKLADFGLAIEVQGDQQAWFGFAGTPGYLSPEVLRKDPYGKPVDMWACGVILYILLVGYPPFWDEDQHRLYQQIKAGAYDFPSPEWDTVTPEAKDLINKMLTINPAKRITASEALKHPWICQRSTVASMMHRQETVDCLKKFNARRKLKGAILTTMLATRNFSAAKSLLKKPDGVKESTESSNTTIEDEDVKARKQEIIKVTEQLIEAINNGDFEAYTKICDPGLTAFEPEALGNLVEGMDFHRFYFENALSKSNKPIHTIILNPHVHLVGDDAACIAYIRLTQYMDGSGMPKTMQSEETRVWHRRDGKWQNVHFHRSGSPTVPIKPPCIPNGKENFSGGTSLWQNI
Assay [20] has as its target Receptor-type tyrosine-protein kinase FLT3 (Homo sapiens, UniProt P36888). Format: functional.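 Also: FLT3 was tested as one member of a kinome-wide kinase panel.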
The target in assay [21] is Calcium/calmodulin-dependent protein kinase type II subunit beta (Homo sapiens, UniProt Q13554). Format: functional.
In assay [22] the target is Dual specificity protein kinase CLK2 (Homo sapiens, UniProt P49760). It counts as functional.
Assay [23] concerns the target Serine/threonine-protein kinase 17A (Homo sapiens, UniProt Q9UEE5). Format: functional.
Assay [24] concerns the target Mitogen-activated protein kinase kinase kinase kinase 2 (Homo sapiens, UniProt Q12851). Format: functional.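 Also: measured as one member of a kinome-wide kinase panel, with MAP4K2 as the panel entry.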
The target in another assay is Misshapen-like kinase 1 (Homo sapiens, UniProt Q8N4C8). Format: functional.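 Also: kinome panel screen with MINK as the panel member.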

Activity calls are given as the source filed them. Some results are limits rather than exact numbers.

What is called EC50 is the concentration that produces a half-maximal response. Usually IC50 stands for the concentration that gives 50% inhibition. Usually Ki stands for a dissociation constant, usually derived from enzyme kinetics or from competition with a known ligand.

Aurora kinase A, sequence (O14965 whole entry): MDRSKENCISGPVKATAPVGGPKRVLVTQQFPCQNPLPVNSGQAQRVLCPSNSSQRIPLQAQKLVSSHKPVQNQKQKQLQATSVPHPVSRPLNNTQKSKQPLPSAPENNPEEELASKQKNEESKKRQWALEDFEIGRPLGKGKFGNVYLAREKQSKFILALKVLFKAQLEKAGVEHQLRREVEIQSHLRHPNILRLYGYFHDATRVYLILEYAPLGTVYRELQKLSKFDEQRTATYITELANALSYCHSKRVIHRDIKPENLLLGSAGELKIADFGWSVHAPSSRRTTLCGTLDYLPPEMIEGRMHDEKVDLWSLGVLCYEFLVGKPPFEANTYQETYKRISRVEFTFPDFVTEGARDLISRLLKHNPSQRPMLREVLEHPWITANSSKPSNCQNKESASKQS
Serine/threonine-protein kinase pim-1, sequence (P11309 whole entry): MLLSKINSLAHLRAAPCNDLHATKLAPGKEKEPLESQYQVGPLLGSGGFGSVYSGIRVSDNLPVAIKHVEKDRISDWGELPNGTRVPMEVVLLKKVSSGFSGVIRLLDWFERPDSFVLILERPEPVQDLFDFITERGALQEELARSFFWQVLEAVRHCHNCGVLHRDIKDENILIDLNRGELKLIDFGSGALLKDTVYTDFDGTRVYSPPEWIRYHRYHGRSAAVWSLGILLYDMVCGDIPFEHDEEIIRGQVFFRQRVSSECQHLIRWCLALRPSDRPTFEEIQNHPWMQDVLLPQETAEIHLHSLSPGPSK
Cyclin-dependent kinase 7, sequence (P50613 whole entry): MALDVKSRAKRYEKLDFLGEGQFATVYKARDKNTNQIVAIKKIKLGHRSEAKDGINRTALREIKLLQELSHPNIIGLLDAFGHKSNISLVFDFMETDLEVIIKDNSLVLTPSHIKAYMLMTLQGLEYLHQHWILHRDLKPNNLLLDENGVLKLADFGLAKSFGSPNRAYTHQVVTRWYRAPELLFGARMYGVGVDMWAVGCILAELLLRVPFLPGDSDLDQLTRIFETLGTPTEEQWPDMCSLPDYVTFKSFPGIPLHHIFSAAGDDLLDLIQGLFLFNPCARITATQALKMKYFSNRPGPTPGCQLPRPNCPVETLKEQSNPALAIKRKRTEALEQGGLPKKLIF
Serine/threonine-protein kinase 17A, sequence (Q9UEE5 whole entry): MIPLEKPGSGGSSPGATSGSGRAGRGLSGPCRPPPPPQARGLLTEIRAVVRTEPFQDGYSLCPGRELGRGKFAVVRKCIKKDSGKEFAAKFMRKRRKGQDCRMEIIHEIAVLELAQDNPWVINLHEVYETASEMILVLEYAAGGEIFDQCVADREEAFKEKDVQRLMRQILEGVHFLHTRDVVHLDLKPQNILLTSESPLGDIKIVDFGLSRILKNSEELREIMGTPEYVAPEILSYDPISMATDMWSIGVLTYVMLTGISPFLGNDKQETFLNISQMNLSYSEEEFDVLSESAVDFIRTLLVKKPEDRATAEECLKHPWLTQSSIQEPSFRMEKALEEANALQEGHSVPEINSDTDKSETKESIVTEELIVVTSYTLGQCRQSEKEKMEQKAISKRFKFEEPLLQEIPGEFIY

Take `Nc1ncnc2c1ncn2[C@@H]1O[C@H](CO)[C@@H](O)[C@H]1O` [ADENOSINE]: in assay [1], the EC50 is 759 nM (active). In addition, the IC50 in assay [2] was 571 nM (active); in assay [3] it was 200 nM (active).

`CCN(CC)C(=O)C(C)N(C#N)c1nc(Cl)nc(N(C)C)n1` (stereo not drawn): the IC50 (on Melanocortin receptor 4; in assay [4]) was > 64600 nM (inactive) in each case.

As for `O=C(c1cc(C2CC2)on1)N(C1CCCCC1)C1CCOCC1`, the EC50 in [5] and in assay [6] was > 50000 nM (inactive) throughout.

In the case of `O=C(Nc1cccc(-c2nn3ccccc3c2-c2ccnc(Nc3ccc4c(c3)CNCC4)n2)c1)c1c(F)cccc1F`, the Ki at Aurora kinase A is 200 nM (active); in assay [7] it was 12.6 nM (active); on Aurora kinase B it was 5.01 nM (active); in assay [8] it was 20 nM (active).

`CC(C)(CO)CCCNc1cc(-c2c[nH]c3ncccc23)cc(Cl)n1`: the Ki in assay [9] is 398 nM (active); in assay [10], 0.631 nM (active); in assay [11], 7.94 nM (active); in assay [12] it was 1580 nM (active); in assay [13] it was 79.4 nM (active); in assay [14], 31.6 nM (active). In addition, the Ki is 158 nM (active) in assay [15] and 31.6 nM (active) in [16].

As for `CCNc1nc(C)c(C=CC(C)(C)c2ccc(C(F)(F)F)cc2)c(NCC)n1`, the Ki in [17] is 7940 nM (active); in [18] it was 1580 nM (active); in assay [19] it was 2000 nM (active); in assay [20] it was 1260 nM (active); in [21], 2000 nM (active).

Regarding `Cc1n[nH]c2c1C(c1ccccc1F)C(C#N)=C(N)O2` (stereo not drawn), the Ki in [22] is 7940 nM (active); in assay [23] it was 2510 nM (active); in [24] it was 5010 nM (active); at Misshapen-like kinase 1, 5010 nM (active).

The record behind these values is ChEMBL document CHEMBL1201862, “PubChem BioAssay data set” (2004).
